Source: patent US6777387B2, “Terminally-branched polymeric linkers containing extension moieties and polymeric conjugates containing the same” (Enzon Pharmaceuticals, Inc., priority 2000, dated 2004)

Assays:
[1] = system: human non-small cell lung carcinoma (LX-1); assay: Efficacy against subcutaneous LX-1 xenograft in nude mice; type: in vivo; conditions: i.v.; for T/C(%) at Day 14: median tumor volume treated vs control when control ~1000 mm^3; for T/C (%) at Day 21: median tumor volume treated vs control when control ~2000 mm^3
Procedure: ^13C NMR spectra were obtained at 67.80 MHz on the JNM GSX-270 or 75.46 MHz on the Varian MercuryVX-300. Chemical shifts (δ) are reported in parts per million (ppm) downfield from tetramethylsilane (TMS) and coupling constants (J values) are given in hertz (Hz). All PEG conjugated compounds were dissolved (˜15 mg/mL) in sterile saline (0.9%) for injection prior to in vivo drug treatments and were given as their ara-C equivalents (absolute amount of ara-C given).
Athymic nude mice were implanted subcutaneous with a 4-5 mm^3 tissue fragment of LX-1 collected from donor mice. The tumor trocar site was observed twice weekly and measured once palpable. The tumor volume for each mouse was determined by measuring two dimensions with calipers and calculated using the formula: tumor volume=(length×width^2)/2. […] The mice were sorted to evenly distribute tumor size, grouped into 4 to 6 mice/group, and ear punched for permanent identification. Drugs were administered intravenously q3d×4 (Day 1, 4, 7 and 10) via the tail vein at an approximate rate of 0.5 mL per minute. Compounds were given both at an equal molar basis (absolute amount of active) of 20 mg/kg and at close their respective MTD (Ara-C, 100 mg/kg/dose (toxicity); PEG-AraC, 40 to 60 mg/kg/dose (volume). Mouse weight and tumor size were measured at the beginning of study and twice weekly through week 4. Drug effectiveness was determined by comparing tumor growth in treated versus untreated (no vehicle) control mice. Five types of endpoints were used as the basis for comparison: (a) mean tumor volumes at Day 28; (b) mean percent change in individual tumor volumes from initial; (c) percent difference in tumor volume (%T/C), measured when the control group's median tumor volume reached approximately 800-1100 mm^3 (exponential growth phase); (d) percent difference in tumor volume (%T/C) at Day 21 (˜2000 mm^3) and (e) the number of tumor regression (smaller tumor volume at Day 21 (˜2000 mm^3) and (e) the number of tumor regression (smaller tumor volume on Day 28 compared to Day 1) per group.

P388/0 = assay: Cytotoxicity assay, P388/0 cells (Alamar Blue); type: cell-based; conditions: 37° C., 3 days incubation, duplicate, SD ±10%
Procedure: Cell Lines and Cytotoxicity Assays. Studies using P388/0 cell lines for IC50 (drug concentration inhibiting growth of cells by 50%) were maintained and conducted as previously reported. Briefly, for IC50 determination, cells were seeded into the microwell plates at a density […] per 50 μL per well. Plates were incubated at 37° C. in a humidified incubator with 5% CO2 for 3 days. Cell growth was measured by the addition of 10 μL/well of Alamar Blue (Alamar Biosciences, Inc., Sacramento, Calif.) and the plates were incubated a further 4 hours at 37° C. The IC50 values for each compound were determined from absorbance versus dilution factor plots. […] All cell lines were periodically tested for Mycoplasma and were Mycoplasma free.

## Nc1ccn([C@@H]2O[C@H](CO)[C@@H](O)[C@@H]2O)c(=O)n1 [Ara-C, ara-C]
[1]; total dose 80 mg/kg
  Complete Regression (#/Grp): 0/4
  Regression at Day 28 (#/Grp): 0/4
  T/C(%) at Day 14: 51.1%
  T/C (%) at Day 21: 52.2%
[1]; total dose 400 mg/kg
  Complete Regression (#/Grp): 0/6
  Regression at Day 28 (#/Grp): 1/6
  T/C(%) at Day 14: 16.7%
  T/C (%) at Day 21: 33.4%
P388/0
  IC50: 10 nM
